For one test, the target named is T1, human NMUR1 receptor (Homo sapiens, UniProt Q9HB89).
T1 construct: expressed in transfected cells; host or cells: CHO-K1
T1 sequence (Q9HB89 1-426): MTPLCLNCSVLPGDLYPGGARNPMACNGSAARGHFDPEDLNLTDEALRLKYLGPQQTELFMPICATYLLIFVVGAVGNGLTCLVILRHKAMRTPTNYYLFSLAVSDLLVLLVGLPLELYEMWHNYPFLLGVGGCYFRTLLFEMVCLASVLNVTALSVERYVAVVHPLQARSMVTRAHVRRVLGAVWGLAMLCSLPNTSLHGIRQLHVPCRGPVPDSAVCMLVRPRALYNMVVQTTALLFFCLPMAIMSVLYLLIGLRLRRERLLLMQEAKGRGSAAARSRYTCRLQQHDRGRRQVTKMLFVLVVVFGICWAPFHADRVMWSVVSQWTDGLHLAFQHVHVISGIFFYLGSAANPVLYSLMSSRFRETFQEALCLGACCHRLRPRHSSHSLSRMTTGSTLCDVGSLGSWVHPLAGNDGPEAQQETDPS
The experiment in a line: IP1 Gq HTRF assay, activation of human NMUR1 in buffer. The test is classed as cell-based. To be noted: CHO-K1 cells expressing human NMUR1, stimulation buffer with 0.1% BSA; read-out: EC50 (hNMUR1) buffer. A digest of the protocol: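 IP-One HTRF competition (665/620 nm ratio) read after 1 h agonist exposure at 37 °C in pH 7.4 HEPES/HBSS stimulation buffer containing 50 mM LiCl, 0.1% BSA, 1% DMSO. Cells: CHO-K1 stably expressing human NMUR2 or NMUR1. EC50 by 4-parameter nonlinear regression of 8-point curves.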

Another test concerns the target human NMUR2 receptor (Homo sapiens, UniProt Q9GZQ4). The experiment in a line: Radioligand binding competition assay (RLB), human NMUR2 receptor binding (SPA, [125I]-Neuromedin U-25). More on the design: host or cells: CHO-K1. To be noted: CHO-K1 hNMUR2 cell membranes, 4 hours at RT. The source says:
Example 1: Radioligand Binding Competition Assay (RLB) Human NMUR2 Receptor Binding
The test is based on membranes prepared from a Human NMUR2/Apoaequorin Stable Cell Line (Creative Biogene, Cat. No. CSC-RG1309).
Cell Line Description: CHO-NMUR2 cell line is clonally derived from a CHO-K1 cell line, which has been transfected with a bicistronic expression plasmid containing the sequence coding for the human neuromedin U receptor 2 (AF242874.1). MOSAIC-ID: CL16550616.
Membrane preparation: Cells were broken by nitrogen cavitation (900 psi, 1 hour). Intact cells were removed by centrifugation (400 rcf (relative centrifugal force), 10 minutes, 4° C.) before the crude membrane fraction was collected by ultracentrifugation (20.000 rcf, 1 hour, 4° C.).
2) Human NMUR2 Receptor Binding Assay (Radioligand: [125I]-Neuromedin U-25 (Human))
In this Scintillation Proximity Assay (SPA) design, the membranes immobilize directly to the PVT-WGA-PEI type A beads (polyethyleneimine treated polyvinyltoluene beads coupled to wheatgerm agglutinin, Perkin Elmer) via interactions of wheat germ agglutinate and glycosylated membrane structures. Thereby the radioactively la-belled ligand, bound to NMUR2 receptors on the membrane, comes in close proximity to the solid scintillator of the PVT bead. Radioactive human neuromedin U-25 then stimulates the scintillant to emit light. In contrast, radioligand not bound to the receptor is too distant from the bead to elicit a signal.
For the Scintillation Proximity Assay the CHO-K1 hNMUR2 cell membranes and SPA-beads are diluted to concentrations, which assure a robust signal to background ratio. The SPA incubation buffer consists of 25 mM Hepes (pH=7.0), 5 mM MgCl2, 1 mM CaCl2, 10 ug/mL Saponine and 0.1% bovine serum albumin and is used for all dilutions.
Final assay setup in 96-well plate: 20 μL of 10× test compound dilutions+40 μL of 5× [125l]-Neuromedin U-25 (1× approx. 30 pM; 2000 μCi/mmol)+60 μL membrane dilution (approx. 2.5 μg membrane protein)+80 μL SPA bead dilution (0.75 mg).
The assay is incubated for 4 hours at RT, including controls for specific binding where no displacer is added and non-specific binding by adding unlabeled hNMU-25 at 100 nM. Bound radioactivity is determined by scintillation counting (MicroBeta Trilux 1450, Perkin Elmer, detection of 125I decay). […] The system assumes one binding site with no relevant radioligand depletion (<10%) and that the binding is reversible and at equilibrium.

SMILES strings stand for the structures. Residues, ends and D or L forms follow the SMILES beside them.

Chain of human NMUR2 receptor (Q9GZQ4 whole entry): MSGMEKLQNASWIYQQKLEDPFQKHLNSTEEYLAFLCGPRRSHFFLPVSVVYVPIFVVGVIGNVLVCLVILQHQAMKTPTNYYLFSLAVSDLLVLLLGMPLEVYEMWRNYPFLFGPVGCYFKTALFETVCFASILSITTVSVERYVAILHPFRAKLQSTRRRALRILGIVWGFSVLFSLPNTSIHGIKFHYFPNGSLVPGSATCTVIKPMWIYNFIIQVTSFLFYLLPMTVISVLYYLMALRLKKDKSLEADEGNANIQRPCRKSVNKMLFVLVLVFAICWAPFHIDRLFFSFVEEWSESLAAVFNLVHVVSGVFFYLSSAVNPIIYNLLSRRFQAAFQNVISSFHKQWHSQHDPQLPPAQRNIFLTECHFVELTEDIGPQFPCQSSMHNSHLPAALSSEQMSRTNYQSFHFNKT

By EC50 is commonly meant the concentration giving half of the maximal effect. The term Ki denotes the dissociation constant of the complex between target and ligand, obtained from inhibition or displacement. Take `CCCC[C@H](NC(=O)[C@H](CC(C)C)N(C)C(=O)[C@H](Cc1ccccc1)NC(=O)[C@H](Cc1ccc(O)cc1)NC(=O)CN1CCN(CCNC(=O)CN(C)C(=O)CN(C)C(=O)CN(C)C(=O)CN(C)C(=O)CN(C)C(=O)CN(C)C(=O)CN(C)C(=O)CN(C)C(=O)CN(C)C(=O)CN(C)C(=O)CN(C)C(=O)CN(C)C(=O)CN(C)C(=O)CN(C)C(=O)CN(C)C(=O)CC[C@H](NC(=O)CC[C@H](NC(=O)CC[C@H](NC(=O)CCCCCCCCCCCCCCCCCCC(=O)O)C(=O)O)C(=O)O)C(=O)O)CC1)C(=O)N[C@@H](CCCN)C(=O)N1CCC[C@H]1C(=O)N[C@@H](CCCNC(=N)N)C(=O)NCC(N)=O` [Compound 1, C20DA-gGlu3-Sar15-AEPipAc-Tyr-Phe-NMeLeu-Nle-Orn-Pro-Arg-Gly-NH2] (HELM PEPTIDE1{[O=C(O)CCCCCCCCCCCCCCCCCCC(=O)[*:2]].[gGlu].[gGlu].[gGlu].[Sar].[Sar].[Sar].[Sar].[Sar].[Sar].[Sar].[Sar].[Sar].[Sar].[Sar].[Sar].[Sar].[Sar].[Sar].[O=C(CN1CCN(CCN[*:1])CC1)[*:2]].Y.F.[meL].[Nle].[Orn].P.R.G.[am]}$$$$V2.0): the EC50 on human NMUR1 receptor came out at 890 nM. Further, the Ki on human NMUR2 receptor was 8.6 nM.
The corresponding values for `CCCC[C@H](NC(=O)[C@H](CC(C)C)N(C)C(=O)[C@H](Cc1ccccc1)NC(=O)[C@H](Cc1ccc(O)cc1)NC(=O)CN1CCN(CCNC(=O)CN(C)C(=O)CN(C)C(=O)CN(C)C(=O)CN(C)C(=O)CN(C)C(=O)CN(C)C(=O)CN(C)C(=O)CN(C)C(=O)CN(C)C(=O)CN(C)C(=O)CN(C)C(=O)CN(C)C(=O)CC[C@H](NC(=O)CC[C@H](NC(=O)CC[C@H](NC(=O)CCCCCCCCCCCCCCCCCCC(=O)O)C(=O)O)C(=O)O)C(=O)O)CC1)C(=O)N[C@@H](CCCNC(=N)N)C(=O)N1CCC[C@H]1C(=O)N[C@@H](CCCNC(=N)N)C(=O)NCC(N)=O` [Compound 6, C20DA-gGlu3-Sar12-AEPipAc-Tyr-Phe-NMeLeu-Nle-Arg-Pro-Arg-Gly-NH2] are 120 nM and 10.1 nM.
Take `CCCC[C@H](NC(=O)[C@H](CC(C)C)N(C)C(=O)[C@H](Cc1ccccc1)NC(=O)[C@H](Cc1ccc(O)cc1)NC(=O)CN1CCN(CCNC(=O)CN(C)C(=O)CN(C)C(=O)CN(C)C(=O)CN(C)C(=O)CN(C)C(=O)CN(C)C(=O)CN(C)C(=O)CN(C)C(=O)CN(C)C(=O)CN(C)C(=O)CN(C)C(=O)CN(C)C(=O)CN(C)C(=O)CN(C)C(=O)CN(C)C(=O)CC[C@H](NC(=O)CC[C@H](NC(=O)CC[C@H](NC(=O)CCCCCCCCCCCCCCCCC(=O)O)C(=O)O)C(=O)O)C(=O)O)CC1)C(=O)N[C@@H](CCCNC(=N)N)C(=O)N1CCC[C@H]1C(=O)N[C@@H](CCCNC(=N)N)C(=O)NCC(N)=O` [Compound 7, C18DA-gGlu3-Sar15-AEPipAc-Tyr-Phe-NMeLeu-Nle-Arg-Pro-Arg-Gly-NH2] (HELM PEPTIDE1{[O=C(O)CCCCCCCCCCCCCCCCC(=O)[*:2]].[gGlu].[gGlu].[gGlu].[Sar].[Sar].[Sar].[Sar].[Sar].[Sar].[Sar].[Sar].[Sar].[Sar].[Sar].[Sar].[Sar].[Sar].[Sar].[O=C(CN1CCN(CCN[*:1])CC1)[*:2]].Y.F.[meL].[Nle].R.P.R.G.[am]}$$$$V2.0): the EC50 on human NMUR1 receptor worked out at 250 nM. At human NMUR2 receptor, this compound had a Ki of 22.8 nM.
Regarding `CCCC[C@H](NC(=O)[C@H](CC(C)C)N(C)C(=O)[C@H](Cc1ccccc1)NC(=O)[C@H](Cc1ccc(O)cc1)NC(=O)CN1CCN(CCNC(=O)CN(C)C(=O)CN(C)C(=O)CN(C)C(=O)CN(C)C(=O)CN(C)C(=O)CN(C)C(=O)CN(C)C(=O)CN(C)C(=O)CN(C)C(=O)CN(C)C(=O)CN(C)C(=O)CN(C)C(=O)CC[C@H](NC(=O)CC[C@H](NC(=O)CC[C@H](NC(=O)CCCCCCCCCCCCCCCCCCC(=O)O)C(=O)O)C(=O)O)C(=O)O)CC1)C(=O)N[C@@H](CCN)C(=O)N1CCC[C@H]1C(=O)N[C@@H](CCCNC(=N)N)C(=O)NCC(N)=O` [Compound 8, C20DA-gGlu3-Sar12-AEPipAc-Tyr-Phe-NMeLeu-Nle-Dbu-Pro-Arg-Gly-NH2], the EC50 at human NMUR1 receptor stood at 1000 nM. This compound registered a Ki on human NMUR2 receptor of 89.1 nM.

Source of the values: patent US20240279278A1, “NMU RECEPTOR 2 AGONISTS” (Boehringer Ingelheim International GmbH, priority 2023, published 2024).
